Results taken from US4620005A, “1-isopropyl-4[(4-tetrahydro-1-naphthoyloxy phenyl)(alkylene)-carbonyl(oxymethlcarbonyl)]piperazines having chymotrypsin-inhibitory activity” (Kowa Co., Ltd., priority 1983, dated 1986).
Structures can show the parent of a compound that is named as a salt.

biological target: chymotrypsin (Bos taurus, UniProt P00766); test: chymotrypsin inhibitory effect (procedure of Muramatsu et al; acetyl-L-tyrosine ethyl ester substrate, Hestrin colour development); type: biochemical; settings: 10 min preincubation; 25 mM acetyl-L-tyrosine ethyl ester; 0.1M Tris-HCl pH 8.0; 37° C., 30 min; absorbance 530 nm; read-out: Inhibitory Activity [50% Inhibitory Concentration (M)]
Protocol: Some selected compounds of this invention were tested with respect to their chymotrypsin inhibitory effects.
The tests were conducted in accordance with the procedure of Muramatsu et al [The Journal of Biochemistry, 62, 408 (1967)]. A mixture was prepared which was made up of 0.1 ml of a dimethylsulfoxide solution of each test compound, 0.1 ml of water and 0.1 ml of a buffer solution containing 10 μg/ml of chymotrypsin (0.1M Tris-HCl buffer, pH 8.0). The mixture was incubated for 10 minutes, followed by addition of 0.2 ml of a buffer solution containing 25 mM of an ethyl ester of acetyl-L-tyrosine. The resulting mixture was reacted at 37° C. for 30 minutes. The remaining substrate was caused to develop a color by the Hesterin method, whereupon its absorbance was measured at 530 nm. As a comparative compound, use was made of tosylphenylalanine chloromethyl ketone (TPCK) which is known as an inhibitor for chymotrypsin.
The results are shown in Table 1 in which the numbers of the test compounds are indicated as those of the corresponding examples given hereunder.

Row | IC50 [M] | SMILES
1 | 4e-06 | CC(C)N1CCN(CC(=O)Nc2ccc(OC(=O)C3CCCc4ccccc43)cc2)CC1 (centres unmarked) [Example 1, 1-Isopropyl-4-[{4-(1,2,3,4-tetrahydro-1-naphthoyloxy)-phenyl}carbamoylmethyl]piperazine.dihydrochloride]
2 | 3e-06 | CC(C)N1CCN(C(=O)C=Cc2ccc(OC(=O)C3CCCc4ccccc43)cc2)CC1 (centres unmarked) [Example 2]
3 | 7e-07 | CC(C)N1CCN(CCNC(=O)c2ccc(OC(=O)C3CCCc4ccccc43)cc2)CC1 (centres unmarked) [Example 3]
4 | 6e-07 | CN1CCN(C(=O)C=Cc2ccc(OC(=O)C3CCCc4ccccc43)cc2)CC1 (centres unmarked) [Example 4]
5 | 3e-08 | CC(C)N1CCN(C(=O)COC(=O)c2ccc(OC(=O)C3CCCc4ccccc43)cc2)CC1 (centres unmarked) [Example 5]
